The target of one test is T1, PfCHA (Plasmodium falciparum, UniProt C6KSN3).
T1 construct: gene PF3D7_0603500; full-length ORF (about 1321 bp, approx. 49 kDa) in pGREG505 (GAL1 promoter), expressed in S. cerevisiae vcx1 knock-out (Y03825), vacuole membrane; apoaequorin co-expressed as reporter
T1 sequence (C6KSN3 1-441): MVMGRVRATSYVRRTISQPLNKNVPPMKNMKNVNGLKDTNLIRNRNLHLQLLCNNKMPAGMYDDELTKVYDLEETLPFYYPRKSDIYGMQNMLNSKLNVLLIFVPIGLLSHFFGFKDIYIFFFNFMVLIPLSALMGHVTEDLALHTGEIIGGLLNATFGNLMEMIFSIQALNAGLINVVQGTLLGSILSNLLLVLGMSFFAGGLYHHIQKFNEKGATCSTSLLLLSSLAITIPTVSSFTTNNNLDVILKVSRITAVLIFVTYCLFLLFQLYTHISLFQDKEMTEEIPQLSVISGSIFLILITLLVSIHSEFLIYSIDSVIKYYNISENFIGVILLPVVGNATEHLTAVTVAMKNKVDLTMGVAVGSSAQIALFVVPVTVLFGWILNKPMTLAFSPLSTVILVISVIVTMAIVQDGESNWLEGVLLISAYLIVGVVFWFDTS
In words: whole-cell apoaequorin luminescence of cytosolic Ca2+ (AUC […]-16 s), 96-well. It is filed as cell-based.

The target of a further test is T2, Vcx1p (VCX1) (Saccharomyces cerevisiae, UniProt Q99385).
T2 construct: full-length gene (1236 bp) in pGREG505 (GAL1 promoter), re-expressed in S. cerevisiae vcx1 knock-out (Y03825); apoaequorin co-expressed as reporter
T2 sequence (Q99385 1-411): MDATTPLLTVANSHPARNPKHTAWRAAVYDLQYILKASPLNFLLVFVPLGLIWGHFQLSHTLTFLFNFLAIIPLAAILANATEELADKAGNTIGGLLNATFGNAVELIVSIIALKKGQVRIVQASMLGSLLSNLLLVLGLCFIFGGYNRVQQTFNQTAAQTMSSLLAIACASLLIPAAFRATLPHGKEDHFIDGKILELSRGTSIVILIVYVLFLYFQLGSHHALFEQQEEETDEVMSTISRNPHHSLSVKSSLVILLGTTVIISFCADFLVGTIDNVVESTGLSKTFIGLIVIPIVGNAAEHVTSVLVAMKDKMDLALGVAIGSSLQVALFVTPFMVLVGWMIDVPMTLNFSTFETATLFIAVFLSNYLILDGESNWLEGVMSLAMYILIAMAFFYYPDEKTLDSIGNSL
The description is as above. It is filed as cell-based. The following applies: read-out: concentrations at which their transport was inhibited by 50%.

On to `N=C(N)SCCc1ccc(OCc2ccc([N+](=O)[O-])cc2)cc1` [KB-R7943], for which the IC50 turned out to be 17.5 µM against PfCHA and 12.5 µM on Vcx1p (VCX1).
